The structures appear in SMILES notation. “And” between values parts separate entries of the source, which are not always exact repeats. Equal values may be shown once. “Also recorded” adds a separate entry of the source. Read-outs that look alike come from different tables or passages of the source. Where only a bound is given, the exact number is not on record here.

Data on 16 molecules can be found in paper PMC9246256, “Structure-based optimization of type III indoleamine 2,3-dioxygenase 1 (IDO1) inhibitors” (Journal of Enzyme Inhibition and Medicinal Chemistry, 2022).

Data set [1] addresses T1, hIDO1 (Homo sapiens, UniProt P14902).
T1 construct: The full ORF of hIDO1 was cloned into the mammalian expression vector pcDNA6/myc-His; myc-His (vector-encoded); host or cells: HEK 293 T
The following applies: previously determined, cited from earlier work; for Inh. [%]: 200 µM; for IC50: read-out: IC50 [µM] (cellular).

Data set [2] addresses T2, purified recombinant IDO1 (Homo sapiens, UniProt P14902).
T2 construct: Full-length human IDO1 gene was cloned into the pET-28a vector; inferred from pET-28a vector and HisTrap purification; made in house; host or cells: E. coli Rosetta (DE3)
As to the kind of experiment: Enzymatic IDO1 inhibition assay (ascorbate/methylene blue reduction system, HPLC detection of kynurenine). It is filed as biochemical. The settings on record: for LE [kcal/mol/HA]: ligand efficiency, LE = -RT log(IC50)/number of heavy atoms, from enzymatic IC50; for IC50: enzymatic, L-Trp 100 µM, 0.01% Triton X-100, 5% DMSO, 20 min at room temperature, pH 6.5, duplicates, read-out: IC50 [ μ M] (SD).
Protocol: Enzymatic IC50 values were measured with the ascorbate/methylene blue reduction system[85] in presence of a non-ionic detergent to reduce compound aggregation as described before[28]. Kynurenine and L-Trp concentrations were determined by HPLC through UV detection.
Full-length human IDO1 gene was cloned into the pET-28a vector and expressed in E. coli Rosetta (DE3) cells. […] The culture was harvested and frozen at −80 °C until further use. The frozen cells were lysed by sonication in 20 mM Tris pH 7, 400 mM NaCl, 1 mM MgCl2, 20 mM imidazole, 1 mM DTT, 0.5 mg/mL Lysozyme and Protease inhibitor. After centrifugation, the supernatant was loaded into a HisTrap HP column pre-equilibrated with buffer containing 20 mM Tris pH 7, 500 mM NaCl and 20 mM imidazole, and eluted with the same buffer containing 500 mM imidazole. Fractions containing IDO1 were pooled, concentrated, and injected on a size exclusion chromatography column (HiLoad Superdex S75 16/60) to increase purity. hIDO1 fractions were concentrated to 20 mg/mL in 20 mM Tris pH 7 and 150 mM NaCl.
The enzymatic inhibition assays were performed as described by Takikawa et al.[130] with some modifications. Briefly, the reaction mixture (100 µL) contained potassium phosphate buffer (100 mM, pH 6.5) ascorbic acid (20 mM), catalase (400 units/mL), methylene blue (10 µM), purified recombinant IDO1 (2.5 ng/µL), L-Trp (100 µM), Triton X-100 (0.01%) and DMSO (5 µL). The inhibitors were serially diluted 3-fold for at least 8 different concentrations. After incubation at room temperature for 20 min, the reaction was stopped in its linear phase by addition of trichloroacetic acid solution (40 mL, 30% w/v), and the samples were incubated at 50 °C for 30 min. After centrifugation, 80 µl of supernatant from each well were used for HPLC analysis. The mobile phase for HPLC analysis was composed of 50% (v/v) of methanol and 50% of sodium citrate buffer (40 mM, pH 2.4) containing 400 µM sodium dodecyl sulphate. […] All assays were carried out in duplicates. The activity (Act) of each compound was calculated as Act = RT log(IC50) in analogy to the relation between the binding free energy and the Ki value. The ligand efficiency (LE) was calculated as LE = −Act/NHA, where NHA is the number of non-hydrogen atoms (heavy atoms) in the compound.

In data set [3] the test system is HEK 293 T cells. The following applies: previously determined, 200 µM, cited from earlier work.
Data set [4] has as its system HEK 293 T cells. As to the kind of experiment: Cell viability / cellular toxicity (DAPI staining, cytometry). It is filed as cell-based, human. The settings on record: 7 h. Here is the method:
(§1) We tested the cellular hIDO1 inhibitory activity and toxicity of 30 active compounds at a single concentration (Figure 6 and Table 8). As some of the aniline derivatives reacted with Ehrlich’s reagent (p-dimethylaminobenzaldehyde, p-DMAB) used to quantify kynurenine, the kynurenine content of these samples was determined by HPLC. To be able to detect also weak inhibition, compounds were tested at the high concentration of 200 µM (Figure 6A and B, filled bars), except for less soluble compounds (52, 148, 149 and 153), which were tested at a concentration of 50 µM (Figure 6A and B, empty bars).
Following DMSO (negative control) or inhibitor treatments, apoptotic cells were detected by 4′,6-diamidino-2-phenylindole (DAPI) staining. Briefly, after 7 h of incubation, cells were washed with PBS, resuspended in PBS with 1 µg/mL DAPI and immediately analysed using a BD LSR II cytometer. A 405 nm laser with 450/50 nm bandpass filter was used to collect data.

Data set [5] concerns the target T1, hIDO1. The data set is described as follows: Cellular hIDO1 inhibition (kynurenine production) in transiently transfected HEK 293 T cells. The format is cell-based. Here is the method:
as §1
The cDNA encoding hIDO1 (NCBI, NM 0021464.3) was purchased from Origene as pCMV6-Entry vector (RC206592). The full ORF of hIDO1 was cloned into the mammalian expression vector pcDNA6/myc-His from Invitrogen. Human embryonic kidney 293 T (HEK 293 T) cells were transiently transfected with the plasmid construct encoding hIDO1. A 75 cm^2 flask containing HEK 293 T cells at a confluency of 70% was transfected with jetPEI DNA transfection reagent (Polyplus-transfection), according to manufacturer’s protocol. A total of 20 µg of pcDNA-IDO1 along with 5 µg of pcDNA-GFP plasmid were used for the transfection; GFP was used to evaluate transfection efficiency prior to the cellular assays. 16–18 h post-transfection the 293 T cells were detached with trypsin, centrifuged, and re-suspended in 25 mL of DMEM medium without phenol red, supplemented with penicillin and streptomycin, 10% foetal bovine serum and 1 mM pyruvate (Gibco). Subsequently, 100 µL of cells were distributed to each well of two 96-well round-bottom plates that had been pre-loaded with 100 µL DMEM and the small organic test molecule in DMSO (for a final DMSO concentration of 2%). DMEM medium contains 78 µM L-Trp and was supplemented with 500 µM of L-Trp. Cells transfected with hIDO1 were incubated for 7 h at 37 °C in a CO2 incubator. The reaction was stopped in its linear phase by adding trichloroacetic acid (TCA) to the medium at a final concentration of 4%. Plates were centrifuged for 15 min at 4,000 rpm. 100 µL of supernatant was added to 100 µL of 2% (w/v) DMAB in glacial acetic acid. After 10 min the absorbance was measured at a wavelength of 480 nm to detect kynurenine formation. Alternatively, kynurenine content was determined by HPLC as done for the enzymatic assay.

Data set [6] is described as follows: Compound solubility (qualitative remarks). It is filed as physicochemical.
Where [7] appears, read: ref 1 of Supporting Information (Röhrig et al. 2021).
Where [8] appears, read: ref 3 of Supporting Information (Röhrig et al. 2016).
Setting [9] is: ref 3 of Supporting Information (= main text ref 62).

T2 sequence (P14902 whole entry): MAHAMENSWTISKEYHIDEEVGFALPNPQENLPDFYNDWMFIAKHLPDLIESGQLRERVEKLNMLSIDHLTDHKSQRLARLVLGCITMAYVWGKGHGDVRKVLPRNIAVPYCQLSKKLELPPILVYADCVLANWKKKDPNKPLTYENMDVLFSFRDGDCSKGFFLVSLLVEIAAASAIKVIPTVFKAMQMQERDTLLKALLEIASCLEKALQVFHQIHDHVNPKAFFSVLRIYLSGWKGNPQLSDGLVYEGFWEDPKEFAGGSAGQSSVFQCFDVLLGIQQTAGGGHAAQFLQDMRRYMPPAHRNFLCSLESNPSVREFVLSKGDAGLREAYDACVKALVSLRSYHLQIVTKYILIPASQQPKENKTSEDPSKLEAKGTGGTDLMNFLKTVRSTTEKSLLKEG
T1 sequence (P14902 whole entry): as above

Consider `Nc1ccc(Cl)cc1-c1nnc[nH]1` [Compound 11], for which the “Inh. [%]” value on hIDO1 [1] (setting [7]) was 100%. Further, the “LE [kcal/mol/HA]” value in data set [2] was 0.78 kcal/mol/HA. In addition, the “Tox. [%]” value with HEK 293 T cells [3] (setting [7]) is listed as 0%.
For orientation: IC50 means the point on the concentration scale where inhibition reaches its midpoint. With `Clc1cccc(-c2cnn[nH]2)c1CCc1ccccc1` [Compound 13], on hIDO1 [1] (setting [8]), the “Inh. [%]” value was 76%. In data set [2], the half-maximal inhibitory concentration (IC50) is 14 µM. Moreover, the “LE [kcal/mol/HA]” value in data set [2] was 0.33 kcal/mol/HA. For the same molecule, the “Tox. [%]” value is 71% in the data set on HEK 293 T cells [3] (setting [9]) and 70% in the data set with HEK 293 T cells [3] (ref 3 of Supporting Information (= main text ref 62), listed as MMG-0472).
Turning to `c1ccc(-c2cnn[nH]2)cc1` [Compound 19], at hIDO1 [1] (setting [7]), the “Inh. [%]” value is given as 93%. Besides, the “Tox. [%]” value in the data set on HEK 293 T cells [3] (setting [7]) is reported as 3%.
In the case of `Oc1ccccc1-c1cnn[nH]1` [Compound 29], the “Inh. [%]” value on hIDO1 [1] (setting [7]) was 95%. For the same molecule, in data set [2], the “LE [kcal/mol/HA]” value stood at 0.64 kcal/mol/HA. In the data set with HEK 293 T cells [3] (setting [7]), the “Tox. [%]” value is recorded as 0%.
In the case of `Clc1cccc(-c2cnn[nH]2)c1` [Compound 30], on hIDO1 [1] (setting [7]), the “Inh. [%]” value was 95%. Also, the “LE [kcal/mol/HA]” value in data set [2] worked out at 0.73 kcal/mol/HA. The “Tox. [%]” value in the data set on HEK 293 T cells [3] (setting [7]) is 0%.
Take `Clc1cccc(-c2cnn[nH]2)c1CCC1CCCC1` [Compound 40]: the “Inh. [%]” value at hIDO1 [1] (setting [8]) is 71%. Besides, in data set [2], the half-maximal inhibitory concentration (IC50) is 9.5 µM and the “LE [kcal/mol/HA]” value worked out at 0.36 kcal/mol/HA. In the data set with HEK 293 T cells [3] (setting [9]), the “Tox. [%]” value is 22%.
As for `Clc1cccc(-c2cnn[nH]2)c1/C=C/c1ccccc1` [Compound 41], the “Inh. [%]” value on hIDO1 [1] (setting [8]) was 32%. Moreover, in data set [2], the 50% inhibitory concentration (IC50) came to 49 µM and the “LE [kcal/mol/HA]” value is on record as 0.29 kcal/mol/HA. The “Tox. [%]” value with HEK 293 T cells [3] (setting [9]) is 58%.
On to `Clc1cccc(-c2cnn[nH]2)c1Cl` [Compound 47], for which the IC50 at hIDO1 [1] (ref 4 of Supporting Information (Röhrig et al. 2012)) was greater than 100 µM. In addition, in data set [2], the “LE [kcal/mol/HA]” value came to 0.49 kcal/mol/HA.
One may read the inhibition as the drop in the measured response relative to a control, in per cent. Read a low inhibition as a response near the control. Usually melting point stands for the temperature of the solid-liquid transition. Take `O=C(c1csnn1)c1cnn[nH]1` [Compound 119, (1,2,3-Thiadiazol-4-yl)(1H-1,2,3-triazol-5-yl)methanone]: the melting point was in the range of 170 to 172 °C. Moreover, the “Tox. [%]” value with HEK 293 T cells [4] (compound 200 µM) is 0 (0) %. This molecule also registered an inhibition at 200 µM against hIDO1 [5] of 4.8%. Also, in data set [2], the IC50 was 515 µM and 510 µM; the “LE [kcal/mol/HA]” value turned out to be 0.37 kcal/mol/HA.
Take `c1ccc(-c2nnc[nH]2)cc1` [Compound 133]: the “Inh. [%]” value at hIDO1 [1] (setting [7]) is listed as 0%. In addition, the “Tox. [%]” value in the data set with HEK 293 T cells [3] (setting [7]) is given as 0%.
With `Clc1cccc(-c2nnc[nH]2)c1` [Compound 136], the “Inh. [%]” value at hIDO1 [1] (setting [7]) is 78%. In addition, the “LE [kcal/mol/HA]” value in data set [2] is given as 0.51 kcal/mol/HA. Also, in the data set with HEK 293 T cells [3] (setting [7]), the “Tox. [%]” value is 0%.
Consider `Oc1ccccc1-c1nnc[nH]1` [Compound 138], for which, at hIDO1 [1] (setting [7]), the “Inh. [%]” value is listed as 52%. Further, the “LE [kcal/mol/HA]” value in data set [2] is given as 0.51 kcal/mol/HA. Further, in the data set on HEK 293 T cells [3] (setting [7]), the “Tox. [%]” value is 6%.
As for `Nc1ccccc1-c1nnc[nH]1` [Compound 139, 3–(2-aminophenyl)-1,2,4-triazole], at hIDO1 [1] (setting [7]), the “Inh. [%]” value was 100% and the IC50 was 4.6 µM. Moreover, the “LE [kcal/mol/HA]” value in data set [2] is reported as 0.65 kcal/mol/HA. In the data set on HEK 293 T cells [3] (setting [7]), the “Tox. [%]” value is 0%.
`CNc1ccc(Cl)cc1-c1nc[nH]n1` [Compound 145, 4-Chloro-N-methyl-2-(1H-1,2,4-triazol-3-yl)aniline] displayed a melting point of 207 to 209 °C. The “Tox. [%]” value in the data set on HEK 293 T cells [4] (compound 200 µM) is recorded as 0 (0) %. The inhibition at 200 µM against hIDO1 [5] stood at 93%. Besides, in data set [2], the 50% inhibitory concentration (IC50) is 8.6 µM and 8.7 µM; the “LE [kcal/mol/HA]” value is 0.49 kcal/mol/HA.
On to `CCC(=O)Nc1ccc(Cl)cc1-c1nc[nH]n1` [Compound 147, N-(4-Chloro-2-(1H-1,2,4-triazol-3-yl)phenyl)propionamide], for which the melting point fell in the range of 168 to 171 °C. For the same molecule, the “Tox. [%]” value in the data set on HEK 293 T cells [4] (compound 200 µM) is 16 (1) %. The same molecule yielded an inhibition at 200 µM against hIDO1 [5] of 100%. In data set [2], the IC50 amounted to 1.2 µM and the “LE [kcal/mol/HA]” value worked out at 0.47 kcal/mol/HA.
On to `O=C(Nc1ccc(Cl)cc1-c1nc[nH]n1)c1ccccc1` [Compound 153, N-(4-Chloro-2-(1H-1,2,4-triazol-3-yl)phenyl)benzamide], for which the “Tox. [%]” value in the data set on HEK 293 T cells [4] (compound 50 µM) is 5.9 (8) %. Moreover, the inhibition at 50 µM on hIDO1 [5] stood at 87%. The “solubility (in words)” value in data set [6] was “low solubility; also recorded: less soluble”. Moreover, the IC50 in data set [2] was 9.4 µM and 9.3 µM.
